# In patent US20260274833A1 (NiKang Therapeutics, Inc., priority 2022, published 2026):
# Target: T1, CDK2 (Homo sapiens, UniProt P24941)
# T1 construct: endogenous in cells; host or cells: OVCAR3 cells
# Test: Phospho-RB measurement in OVCAR3 cells (HTRF phospho-RB cellular kit)
# Type: cell-based
# Conditions: inhibition of RB phosphorylation at S807/811 (HTRF, TR-FRET ratio 665/620), 24 h compound treatment, 0.3 to 10,000 nM
# In short: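 IC50 came from a four-parameter logistic fit of the DMSO-normalized TR-FRET ratio (665/620 nm). That ratio reflects RB phosphorylation at S807/811, read with an HTRF antibody pair 4 h after adding lysate at room temperature.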
row,SMILES,IC50 [nM]
1,"CC1(c2nc(-c3cccc(NS(=O)(=O)N4CCc5ccc(C#N)cc54)c3F)c(-c3ccnc(Nc4ccc(N5CCNCC5)cc4)n3)s2)CCOCC1 [Example 236, 6-cyano-N-(2-fluoro-3-(2-(4-methyltetrahydro-2H-pyran-4-yl)-5-(2-((4-(piperazin-1-yl)-phenyl)amino)-pyrimidin-4-yl)thiazol-4-yl)-phenyl)indoline-1-sulfonamide]",477
2,"O=S1(=O)CC2(CC(Nc3nccc(-c4sc(C56CC(C5)C6)nc4-c4cccc(NS(=O)(=O)N5CCOCc6ccccc65)c4F)n3)C2)C1 [Example 273, N-(3-(2-(bicyclo [1.1.1]pentan-1-yl)-5-(2-((2,2-dioxido-2-thiaspiro[3.3]heptan-6-yl)amino)-pyrimidin-4-yl)thiazol-4-yl)-2-fluorophenyl)-2,3-dihydrobenzo-[e][1,4]oxazepine-1(5H)-sulfonamide]",3280
3,"CC(C)(C)c1nc(-c2cccc(NS(=O)(=O)N3CCC(Oc4ccccc4)CC3)c2F)c(-c2ccnc(NC3CCN(S(C)(=O)=O)CC3)n2)s1 [Example 65, N-(3-(2-(tert-butyl)-5-(2-((1-(methylsulfonyl)-piperidin-4-yl)amino)-pyrimidin-4-yl)thiazol-4-yl)-2-fluoro-phenyl)-4-phenoxypiperidine-1-sulfonamide]",588
4,"CC(C)(C)c1nc(-c2cccc(NS(=O)(=O)N3CCC4(CCC4)C3)c2F)c(-c2ccnc(NC3CCN(S(=O)(=O)N4CCNCC4)CC3)n2)s1 [Example 177, N-(3-(2-(tert-butyl)-S-(2-((1-(piperazin-1-ylsulfonyl)piperidin-4-yl)amino)-pyrimidin-4-yl)thiazol-4-yl)-2-fluoro-phenyl)-6-azaspiro[3.4] octane-6-sulfonamide]",1020
5,"CC(C)(C)c1nc(-c2cccc(NS(=O)(=O)N3CCOc4ccccc4C3)c2F)c(-c2ccnc(NC3CCN(S(=O)(=O)N4CCNCC4)CC3)n2)s1 [Example 115, N-(3-(2-(tert-butyl)-5-(2-((1-(piperazin-1-ylsulfonyl)piperidin-4-yl)amino)-pyrimidin-4-yl)thiazol-4-yl)-2-fluorophenyl)-2,3-dihydrobenzo [f][1,4]-oxazepine-4(5H)-sulfonamide]",636
6,"CS(=O)(=O)[C@H]1CC[C@H](Nc2nccc(-c3sc(C45CC(C(F)(F)F)(C4)C5)nc3-c3cccc(NS(=O)(=O)N4CCc5ccc(C(F)(F)F)cc54)c3F)n2)CC1 [Example 55, N-(2-fluoro-3-(5-(2-(((1r, 4r)-4-(methylsulfonyl)cyclohexyl)amino)pyrimidin-4-yl)-2-(3-(trifluoromethyl)bicyclo-[1.1.1]-pentan-1-yl)thiazol-4-yl)phenyl)-6-(trifluoromethyl) indoline-1-sulfonamide]",525
7,"CC(C)(C)c1nc(-c2cccc(NS(=O)(=O)N3CCOc4ccccc43)c2F)c(-c2ccnc(NC3CCN(S(C)(=O)=O)CC3)n2)s1 [Example 98, N-(3-(2-(tert-butyl)-5-(2-((1-(methylsulfonyl)piperidin-4-yl)amino)-pyrimidin-4-yl)thiazol-4-yl)-2-fluoro-phenyl)-2,3-dihydro-4H-benzo[b][1,4]-oxazine-4-sulfonamide]",511
8,"CC(C)(C)c1nc(-c2cccc(NS(=O)(=O)N3CCC4(CCCC4)C3)c2F)c(-c2ccnc(NC3CCN(S(=O)(=O)N4CCNCC4)CC3)n2)s1 [Example 176, N-(3-(2-(tert-butyl)-5-(2-((1-(piperazin-1-ylsulfonyl)piperidin-4-yl)amino)-pyrimidin-4-yl)thiazol-4-yl)-2-fluoro-phenyl)-2-azaspiro[4.4] nonane-2-sulfonamide]",1920
9,"O=S1(=O)CC2(CC(Nc3nccc(-c4sc(C56CC(C5)C6)nc4-c4cccc(NS(=O)(=O)N5CC6CCC(CC6)C5)c4F)n3)C2)C1 [Example 270, (1s,5s)-N-(3-(2-(bicyclo[1.1.1]pentan-1-yl)-5-(2-((2,2-dioxido-2-thiaspiro[3.3]-heptan-6-yl)-amino)pyrimidin-4-yl)thiazol-4-yl)-2-fluorophenyl)-3-azabicyclo[3.2.2] nonane-3-sulfonamide]",3430
10,"CC(C)(C)c1nc(-c2cccc(NS(=O)(=O)N3Cc4ccc(C#N)cc4C3)c2F)c(-c2ccnc(NC3CCN(S(=O)(=O)N4CCNCC4)CC3)n2)s1 [Example 149, N-(3-(2-(tert-butyl)-5-(2-((1-(piperazin-1-ylsulfonyl)piperidin-4-yl)amino)-pyrimidin-4-yl)thiazol-4-yl)-2-fluoro-phenyl)-5-cyanoisoindoline-2-sulfonamide]",488
11,"CNS(=O)(=O)Nc1cccc(-c2nc(C(C)(C)C)sc2-c2ccnc(NC3CCN(S(=O)(=O)N4CCNCC4)CC3)n2)c1F [Example 146, N-(3-(2-(tert-butyl)-5-(2-((1-(piperazin-1-ylsulfonyl)piperidin-4-yl)amino)-pyrimidin-4-yl)thiazol-4-yl)-2-fluoro-phenyl)-methylamine-sulfonamide]",3010
12,"CC(C)(C)OC(=O)N1CCN(S(=O)(=O)Nc2cccc(-c3nc(C(C)(C)C)sc3-c3ccnc(NC4CCN(S(C)(=O)=O)CC4)n3)c2F)c2ccccc21 [Example 101, tert-butyl 4-(N-(3-(2-(tert-butyl)-5-(2-((1-(methylsulfonyl)piperidin-4-yl)amino)-pyrimidin-4-yl)thiazol-4-yl)-2-fluorophenyl)-sulfamoyl)-3,4-dihydroquinoxaline-1(2H)-carboxylate]",1830
13,"CC(C)(C)c1nc(-c2cccc(NS(=O)(=O)N3CCc4ccc(C#N)cc43)c2F)c(-c2ccnc(Nc3ccc(N4CCN(C5COC5)CC4)cc3)n2)s1 [Example 250, N-(3-(2-(tert-butyl)-5-(2-((4-(4-(oxetan-3-yl)-piperazin-1-yl)phenyl)amino)-pyrimidin-4-yl)thiazol-4-yl)-2-fluoro-phenyl)-6-cyanoindoline-1-sulfonamide]",576

# Now those with a lower IC50, led by results:
row,IC50 [nM],SMILES
1,409,"O=S1(=O)CC2(CC(Nc3nccc(-c4sc(C56CC(C(F)(F)F)(C5)C6)nc4-c4cccc(NS(=O)(=O)N5CCc6ccc(C(F)(F)F)cc65)c4F)n3)C2)C1 [Example 279, N-(3~(5-(2-((2,2-dioxido-2-thiaspiro-[3.3]heptan-6-yl)amino)pyrimidin-4-yl)-2-(3-(trifluoromethyl)bicyclo[1.1.1]-pentan-1-yl)thiazol-4-yl)-2-fluoro-phenyl)-6-(trifluoromethyl) indoline-1-sulfonamide]"
2,291,"CN(C)CCN(C)S(=O)(=O)N1CCC(Nc2nccc(-c3sc(C(C)(C)C)nc3-c3cccc(NS(=O)(=O)N4CCNc5ccccc5C4)c3F)n2)CC1 [Example 139, N-(3-(2-(tert-butyl)-5-(2-((1-(N-(2-(dimethyl-amino)ethyl)-N-methyl-sulfamoyl)piperidin-4-yl)amino)-pyrimidin-4-yl)thiazol-4-yl)-2-fluoro-phenyl)-1,2,3,5-tetrahydro-4H-benzo[e][1,4] diazepine-4-sulfonamide]"
3,208,"CN1CCN(S(=O)(=O)N2CCC(Nc3nccc(-c4sc(C(C)(C)C)nc4-c4cccc(NS(=O)(=O)N5Cc6cccnc6C5)c4F)n3)CC2)CC1 [Example 127, N-(3-(2-(tert-butyl)-5-(2-((1-((4-methyl-piperazin-1-yl)sulfonyl)piperidin-4-yl)amino)-pyrimidin-4-yl)thiazol-4-yl)-2-fluorophenyl)-5,7-dihydro-6H-pyrrolo[3,4-b] pyridine-6-sulfonamide]"
4,192,"O=S1(=O)CC2(CC(Nc3nccc(-c4sc(N5C6CCC5CN(CC(F)(F)F)C6)nc4-c4cccc(NS(=O)(=O)N5Cc6cccc(C(F)(F)F)c6C5)c4F)n3)C2)C1 [Example 40, N-(3-(5-(2-((2,2-dioxido-2-thiaspiro-[3.3]-heptan-6-yl)amino)pyrimidin-4-yl)-2-(3-(2,2,2-trifluoroethyl)-3,8-diazabicyclo[3.2.1]-octan-8-yl)thiazol-4-yl)-2-fluorophenyl)-4-(trifluoromethyl)-isoindoline-2-sulfonamide]"
5,145,"CC(O)c1cccc2c1CCN2S(=O)(=O)Nc1cccc(-c2nc(C(C)(C)C)sc2-c2ccnc(NC3CC4(C3)CS(=O)(=O)C4)n2)c1F (stereo not shown) [Example 229, N-(3-(2-(tert-butyl)-5-(2-((2,2-dioxido-2-thiaspiro[3.3]heptan-6-yl)amino)-pyrimidin-4-yl)thiazol-4-yl)-2-fluoro-phenyl)-4-(1-hydroxyethyl)-indoline-1-sulfonamide]"
6,77.4,"CC(C)(C)c1nc(-c2cccc(NS(=O)(=O)N3Cc4ccc(CO)cc4C3)c2F)c(-c2ccnc(NC3CC4(C3)CS(=O)(=O)C4)n2)s1 [Example 231, N-(3-(2-(tert-butyl)-5-(2-((2,2-dioxido-2-thiaspiro[3.3]heptan-6-yl)amino)-pyrimidin-4-yl)thiazol-4-yl)-2-fluorophenyl)-5-(hydroxymethyl)-isoindoline-2-sulfonamide]"
7,65,"CNS(=O)(=O)N1CCC(Nc2nccc(-c3sc(C(C)(C)C)nc3-c3cccc(NS(=O)(=O)N4Cc5ccccc5C4)c3F)n2)CC1 [Example 75, N-(3-(2-(tert-butyl)-5-(2-((1-(N-methylsulfamoyl)piperidin-4-yl)amino)-pyrimidin-4-yl)thiazol-4-yl)-2-fluoro-phenyl)-isoindoline-2-sulfonamide]"
8,53.3,"N#Cc1ccc2c(c1)N(S(=O)(=O)Nc1cccc(-c3nc(C45CC(C4)C5)sc3-c3ccnc(N[C@H]4C[C@@H]5CS(=O)(=O)C[C@@H]5C4)n3)c1F)CC2 [Example 59, N-(3-(2-(bicyclo [1.1.1]pentan-1-yl)-5-(2-(((3aR,5s,6aS)-2,2-dioxidohexahydro-1H-cyclopenta[c]thiophen-5-yl)amino)-pyrimidin-4-yl)thiazol-4-yl)-2-fluorophenyl)-6-cyanoindoline-1-sulfonamide]"
9,24.8,"CN1CC2CCC(C1)N2c1nc(-c2cccc(NS(=O)(=O)N3Cc4cccc(C(F)F)c4C3)c2F)c(-c2ccnc(NC3CC4(C3)CS(=O)(=O)C4)n2)s1 [Example 18, 4-(difluoromethyl)-N-(3-(5-(2-((2,2-dioxido-2-thiaspiro [3.3]heptan-6-yl)amino)pyrimidin-4-yl)-2-(3-methyl-3,8-diazabicyclo [3.2.1]octan-8-yl)thiazol-4-yl)-2-fluorophenyl)-isoindoline-2-sulfonamide]"
